Target: T1, Chymotrypsin (Bos taurus, UniProt P00766)
T1 construct: purchased Sigma C 4129; host or cells: bovine pancreas (tissue-derived)
Assay: AZOCOLL enzyme activity assay of chymotrypsin after exposure to reducing agent
Format: biochemical, bovine
Conditions: chymotrypsin exposed to DTT 10 mM in presence of SDS 1% w:v, 2 hours, 37-40° C., desalted; AZOCOLL 37° C. 20 minutes; mean of 3; positive control 0.523, negative control 0.003
Procedure: Stock trypsin and chymotrypsin solutions were solubilized from dry powder supplied by the manufacturer in PBS, pH 7.4, at room temperature. Protein concentrations were set at 1 mg/ml. Protein solutions were sterile filtered through a 0.45 μm syringe filter to eliminate potential bacterial contamination.
Working solution of the protein was prepared by dilution from concentrated stock to a final concentration of 100 μg/ml.
The protein was incubated with the agents for 2 hours. […] The protein was passed over a Sephadex G-25 column, as described above, to prepare it for the assay. After the protein was eluted from the column it was used immediately in the assay.
Each of the proteins that were exposed to an agent was assessed for its activity by incubating it with a collagen substrate with an azo containing dye. AZOCOLL was suspended in PBS at a concentration of 1 mg/ml.
For the assay, 1 ml of protein was mixed with 1 ml of AZOCOLL substrate. The reaction was performed at 37° C. for 20 minutes in Ependorff microfuge tubes. […] The aqueous solution was removed from the centrifuge tubes and the absorbance of the solution (containing soluble azo dye) was monitored at 520 nm. […]
All experiments were run in triplicate. Data reported is the mean of the 3 readings. […]

Abs. @ 520 nm: 0.031
SMILES: O[C@@H](CS)[C@@H](O)CS [reducing agent, dithiothreatol]

— US7078163B2, “Process for reducing mineralization of tissue used in transplantation” (Medtronic, Inc., priority 2001, dated 2006)
